Values after ≈ are worked out from the molar mass of the structure shown.
Columns and labels:
[1] = tested on: subscapular incision wound; assay: in vivo application of compositions to subscapular incisions in a rat model (Example 13); set-up: species or system Sprague-Dawley rats
From the text: 12 Sprague-Dawley rats were placed randomly into 6 different groups, Study Groups 1-6, resulting in 2 animals per study group. Animals were anesthetized and the dorsal subscapular areas were shaved of hair with electric trimmers. Demarcations were made in a gently widening parallel approximately 1 cm subscapular and 2.2 cm in length. The left subscapular incision served as a control and the right subscapular incision served as the treatment site. The subscapular areas were incised with a #15 blade though the skin and subcutaneous panniculus carnosus muscle. The composition mixture corresponding to each group was then instilled into the right subscapular wound and the incision closed with 5-0 nylon interrupted fashion. Additional mixture was applied to the surface of the treatment site incision. Three biopsies were taken of normal skin at the time of incision and prior to any mixture instillation. Each site was then monitored and photographed daily. Wound gross morphology was noted daily. Sutures were removed and biopsies were taken at day 8 of the study (postoperative day #7) and sent to pathology for histology review. Histology was reviewed independently by two dermatopathologists.
A siRNA (MCP-1 inhibitor)

[2] = pH 7.4
[3] = physchem
Procedure: Two 4 mg samples of each compound were weighed.
The first sample was used to determine solubility. The sample was mixed with 1 mL of pH 7.4 phosphate buffered saline (PBS) buffer solution to produce a 4 mg/mL solution. The solution was vortexed and filtered to remove undissolved particles. The filtered solution was then diluted in pH 7.4 buffer in triplicate and stored in a refrigerator to reduce hydrolysis. The solutions were allowed to sit at room temperature for 5 minutes and then were analyzed by HPLC.
The second sample was used to prepare a calibration curve in ethanol. Calibrators were made based on expected solubility. After visually inspecting solubility in the buffer, the calibration curve was determined in order to include points above and below the expected concentration. The calibrators were stored in a refrigerator until ready for analysis by HPLC.

[4] = tested on: wound; settings: applied before wound formation or up to 24 hours after; cited from earlier work

Compound | differences in histology between control and treatment site ([1]; 100 μM and 400 μM (either dosage), Groups 2 and 3) | difference in treatment, alone, as compared to natural resveratrol alone ([1]; Groups 2 and 3) | evidence of trichogranuloma in histology specimens ([1]; histology) | hydrolysis [2] | Solubility ([3]; pH 7.4) [µg/mL] | scar [4] | time to re-epithelialization [4] | Solubility ([3]; pH 7.4, aqueous buffer, thermodynamic from solid) [µg/mL]
O=C(O)CCCC(=O)Oc1ccc(C=Cc2cc(OC(=O)CCCC(=O)O)cc(OC(=O)CCCC(=O)O)c2)cc1 [Resveratrol trihemiglutarate, resveratrol trihemiglutarate] | no differences | no appreciable difference | mild | slightly hydrolyzed | 2060 (≈ 3610 µM) | – | – | –
O=C(O)CCC(=O)Oc1ccc(C=Cc2cc(OC(=O)CCC(=O)O)cc(OC(=O)CCC(=O)O)c2)cc1 [Resveratrol trihemisuccinate, resveratrol trihemisuccinate] | – | – | – | quick hydrolysis | 291 (≈ 551 µM) | – | – | –
Oc1ccc(/C=C/c2cc(O)cc(O)c2)cc1 [Resveratrol, trans-3,4′,5-trihydroxystilbene] | – | – | – | – | – | attenuated scar | up to 24 hours | 4.8 (≈ 21 µM)

Source: patent publication US10099995B2 (Cole Research and Design, LLC, priority 2015, dated 2018)
